These results are taken from patent publication US6174888A, “2-amino-7-(1-substituted-2-hydroxyethyl)-3,5-dihydropyrrolo[3,2-D]pyrimidin -4-ones” (Novartis AG, priority 1998, dated 2001).

One test deals with PNP. Kind of test: PNP inhibition in vivo: increased plasma level of inosine in mice. The note with it: 10 mg/Kg p.o. The protocol: Briefly, mice are treated orally with the PNP inhibitor suspended in fortified cornstarch (3% cornstarch suspension in water with 0.33% Tween 80 and 5% PEG 400) at a final volume of 10 ml/kg. One or more hours after a single oral dose of compound, the mice are bled by cardiac puncture into 25 U/ml heparin to obtain plasma. The samples are analyzed for both inosine and drug levels by a gradient reverse-phase high performance liquid chromatography (HPLC) method (see Anal Chem, 1977, 49:2237-41). Quantitation is performed using an internal standard method with 2',3'-dideoxyinosine (DDI) as the internal standard.

Another test concerns Human CCRF-CEM cells. Kind of test: potentiation of the cell growth inhibitory activity (cytotoxicity) of 2'-deoxyguanosine, CCRF-CEM cell assay. The class given is cell-based. The note with it: d-Guo 10 μM, increase in cell number between 0 and 72 hours. As for the experimental part:
The selective suppression of spontaneous T-cell proliferation in vitro is measured by the potentiation of the cell growth inhibitory activity (cytotoxicity) of 2'-deoxyguanosine (d-Guo) by the compounds of the invention, determined as follows: Human CCRF-CEM cells are grown in RPMI-1640 medium. To suspension cultures of these cells, d-Guo at a fixed concentration (10 μM) and the candidate PNP inhibitor at varied concentrations are added and the number of cells are determined in a Coulter counter 24, 48, and 72 hours thereafter. […] This method is similar to that previously used to determine the effectiveness of PNP inhibitors on potentiation of the toxicity of d-Guo. [See D. A. Shewach et al., Cancer Res., 46, 519 (1986); J. C. Sircar et al., Agents and Actions, 21, 253 (1987), also Methods in Pharmacology, D. M. Paten, ed. 1985, pp. 147-162].

For the next test, the target named is T1, Calf spleen PNP (Bos taurus, UniProt P55859).
T1 construct: Calf spleen PNP is used as the enzyme source; from tissue; host or cells: calf spleen
T1 sequence (P55859 1-289): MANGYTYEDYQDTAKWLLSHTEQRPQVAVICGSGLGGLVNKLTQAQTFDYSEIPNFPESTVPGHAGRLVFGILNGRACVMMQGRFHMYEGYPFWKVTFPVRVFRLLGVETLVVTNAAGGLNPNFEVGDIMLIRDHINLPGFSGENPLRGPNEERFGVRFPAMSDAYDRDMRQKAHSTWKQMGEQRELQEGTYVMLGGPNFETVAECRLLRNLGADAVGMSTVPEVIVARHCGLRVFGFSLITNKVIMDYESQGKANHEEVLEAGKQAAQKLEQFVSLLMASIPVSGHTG
Briefly: PNP inhibition in vitro, colorimetric enzymic determination of inorganic phosphate (PNP and xanthine oxidase, substrate inosine). The class given is biochemical. The note with it: 1 mM phosphate concentration. The protocol:
PNP inhibition can also be determined in vitro as follows: An enzymic method for the determination of inorganic phosphate (see Chem. Pharm. Bull., 1981, 29:1451-5), based on the principle of forming hydrogen peroxide with purine nucleoside phosphorylase (PNP) and xanthine oxidase, is used to colorimetrically measure the degree of linkage between enzyme and substrate (inosine). Calf spleen PNP is used as the enzyme source. The IC50 values for the compounds studied are determined graphically at two phosphate concentrations (1 and 50 mM) from a plot of percent inhibition versus compound concentration.

Test [1] relates to collagen II induced arthritis. Kind of test: collagen II induced arthritis in mice model. The class given is in vivo, mice (DBA/1LacJ). Particulars: 20 mg/Kg/day, oral. The protocol:
The antiarthritic activity can be determined in the collagen II induced arthritis in mice model. DBA/1LacJ female mice, 6-8 weeks old, are immunized with 100 μg of chicken type II collagen emulsified in Freund's complete adjuvant (FCA) by injecting at the base of the tail on day 0. On day 17 after collagen injection, the immune response to type II collagen is boosted with a subcutaneous injection of 200 μg LPS solubilized in PBS. Paws are examined on days 17, 21, 24, 28, 31, 35, and 42 and scored for the symptoms of arthritis based on criteria such as inflammation, swelling and ankylosis. Compounds are suspended in corn starch vehicle and administered orally to mice once daily beginning on day 1 and continuing through day 42.

The next test relates to transplant rejection. Briefly: mouse tail skin transplant rejection model. Format: in vivo, mouse (C57BL/10-SnJ and B10.BR/SgSnJ). The text has this: Protection against transplant rejection can be determined in a mouse tail skin transplantation procedure.
Mice are anesthetized with tribromoethanol i.p. injection according to the method of Papaioannou and Fox (Lab. Animal Science 1993;43:189-92). The mouse tail skin transplant rejection model is a modification of that described by Baily and Usama, (Transpl. Bull. 1960;7:424-5). Four skin grafts per mouse are exchanged between strains [C57BL/10-SnJ (H-2K^b) and B10.BR/SgSnJ (H-2K^k)] at surgery (d0). Fitted skin grafts are made with a scalpel, and tail graft sites are protected with tubing for 2 days following surgery. Mouse tails are evaluated at day 7 for missing grafts. Only those graft sites that have patent grafts at day 7 are evaluated at later scoring intervals. Grafts are scored numerically for signs of rejection at ~weekly scoring intervals starting day 14. Dose-group mean graft scores are compared statistically.

For `Nc1nc2c([C@@H](CO)c3ccccc3)c[nH]c2c(=O)[nH]1` [3(f), 2-Amino-7-(2(S)-hydroxy-1-phenylethyl)-3,5-dihydro-4H-pyrrolo[3,2-d]-pyrimidin-4-one], the “increase in the plasma level of inosine” value in the test on PNP is recorded as “significant increase”. Further, the half-inhibitory concentration (IC50) in the test on Human CCRF-CEM cells is approximately 100 nM; against Calf spleen PNP it was approximately 10 nM.
Turning to `Nc1nc2c([C@@H](CO)c3ccccc3F)c[nH]c2c(=O)[nH]1` [Example 1, 2-amino-7-[1-(2-flourophenyl)-2(R)-hydroxyethyl]-3,5-dihydro-4H-pyrrolo[3,2-d]pyrimidin-4-one], the antiarthritic activity result in test [1] is listed as “effective”. Moreover, in the test on transplant rejection (50 mg/Kg/day, mouse), the “protection against transplant rejection” value was “effective in protecting against transplant rejection”. The “effect of combination with cyclosporin in the transplant rejection model” value with transplant rejection (combination of a compound of the invention, e.g. of example 1, and cyclosporin) is given as “superior to either cyclosporin or the PNP inhibitor alone”. For the same molecule, the “increase in the plasma level of inosine” value in the test with PNP was “significant increase”. Moreover, the IC50 with Human CCRF-CEM cells was approximately 75 nM; against Calf spleen PNP, approximately 10 nM.

Broadly, the IC50 is the concentration needed to halve the response being measured.
